Our source for the IC50 and EC50 values is patent US12448400B2, “KRAS G12D modulating compounds” (priority 2023, dated 2025).

In general, IC50 refers to the concentration that inhibits the measured activity by half. By EC50 is commonly meant the midpoint of the concentration-response curve.

Like-named read-outs stand apart in the source and are kept apart here.

Assay [1] addresses GDP-loaded KRAS G12D (Homo sapiens, UniProt P01116, G12D). Put plainly: KRAS G12D (GDP) biochemical assay, TR-FRET probe displacement. The format is binding. How it is done:
Example A. KRAS G12D (GDP) Biochemical Assay
Compounds were tested for binding to GDP-loaded KRAS G12D in a 384-well assay format using a TR-FRET probe displacement assay in buffer consisting of 50 mM Hepes (pH 7.4), 150 mM NaCl, 5 mM MgCl2 and 0.005% Tween-20. […] Compounds were serially diluted (1:3) in DMSO. The LabCyte ECHO Acoustic dispenser system was used to pre-spot the assay plates (384-well Non-Binding Surface plates, Corning, Catalog #3824) with 50 nL of compound. The compounds were pre-incubated with 5 μL of 2× final enzyme concentration for 30 minutes before adding 5 μL of 2× final concentration of Eu-streptavidin and TR-FRET probe (10 μL final reaction volume). The plates were incubated at room temperature for 2 hours before measuring TR-FRET ratio on the Envision plate reader. IC50 values were defined as the compound concentration that causes a 50% decrease in TR-FRET ratio and were calculated using a sigmoidal dose-response model to generate curve fits.

The subject of assay [2] is GP2D (KRAS G12D) cells. Put plainly: 2D cell viability assay (CellTiter-Glo). The class given is cell-based. The conditions noted are these: 96 h. On the procedure: Example B. 2D Cell Viability Assay
Compounds were tested in a 384-well format for their ability to inhibit the viability of GP2D (KRAS G12D) cells in 2D assays. Compounds were serially diluted (1:3) in DMSO. The LabCyte ECHO Acoustic dispenser system was used to pre-spot assay plates with 200 nL of test molecule per well. 1000 cells/well (40 μL volume per well) in RPMI medium with 10% FBS, and Penicillin-Streptomycin-Glutamine were plated in pre-spotted 384-well plates (Greiner, Catalog #781076) on the BioTEK EL406 liquid dispenser with a 5 μL dispensing cassette (BioTek 7170011). The plates were incubated at 37° C., 5% CO2 for 4 days before addition of CellTiter-Glo (CTG) reagent and measurement of luminescence signal. EC50 values were defined as the compound concentration that causes a 50% decrease in luminescence signal and were calculated using a sigmoidal dose-response model to generate curve fits.
On the technique in general: In ATP-based viability assays light output follows the ATP content of the culture.

[3] abbreviates: 0.5 nM enzyme, 30 min pre-incubation, 2 h incubation, TR-FRET ratio, read-out: G12D IC50.
[4] abbreviates: GP2D cells, 4 days, CellTiter-Glo luminescence, read-out: G12D 2D EC50.

GDP-loaded KRAS G12D, sequence (P01116 1-188 isoform P01116-2 G12D): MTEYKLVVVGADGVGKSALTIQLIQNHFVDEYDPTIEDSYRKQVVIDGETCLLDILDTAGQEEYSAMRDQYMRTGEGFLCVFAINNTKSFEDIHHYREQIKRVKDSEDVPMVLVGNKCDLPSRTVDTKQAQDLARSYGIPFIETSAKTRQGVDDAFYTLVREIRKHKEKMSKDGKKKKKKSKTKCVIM

Take `C#Cc1c(F)ccc2cc(OCc3oc(=O)oc3C)cc(-c3nc4c5c(nc(OC[C@@]67CCCN6C[C@H](F)C7)nc5c3F)N3C[C@H]5CC[C@@H]([C@@H]3[C@@H](C)C4)N5Cc3oc(=O)oc3C)c12` [Example 2, 4-(((5-ethynyl-6-fluoro-4-((5S,5aS,6S,9R)-1-fluoro-12-(((2R,7aS)-2-fluorotetrahydro-1H-pyrrolizin-7a(5H)-yl)methoxy)-5-methyl-14-((5-methyl-2-oxo-1,3-dioxol-4-yl)methyl)-4,5,5a,6,7,8,9,10-octahydro-3,10a,11,13,14-pentaaza-6,9-methanonaphtho[1,8-ab]heptalen-2-yl)naphthalen-2-yl)oxy)methyl)-5-methyl-1,3-dioxol-2-one]: the half-inhibitory concentration (IC50) in assay [1] (setting [3]) is 40 nM. The concentration for a half-maximal effect (EC50) in assay [2] (setting [4]) was determined as 0.24 nM.

As to `C#Cc1c(F)ccc2cccc(-c3nc4c5c(nc(OC[C@@]67CCCN6C[C@H](F)C7)nc5c3F)N3C[C@H]5CC[C@@H]([C@H]3CCC4)N5Cc3oc(=O)oc3-c3ccccc3)c12` [Example 4, 4-(((6aR,7S,10R)-2-(8-ethynyl-7-fluoronaphthalen-1-yl)-1-fluoro-13-(((2R,7aS)-2-fluorotetrahydro-1H-pyrrolizin-7a(5H)-yl)methoxy)-5,6,6a,7,8,9,10,11-octahydro-4H-3,11a,12,14,15-pentaaza-7,10-methanocyclohepta[4,5]cycloocta[1,2,3-de]naphthalen-15-yl)methyl)-5-phenyl-1,3-dioxol-2-one], the IC50 in assay [1] (setting [3]) was determined as 3.3 nM. Moreover, the concentration for a half-maximal effect (EC50) in assay [2] (setting [4]) stood at 2.3 nM.

Regarding `C#Cc1c(F)ccc2cccc(-c3nc4c5c(nc(OC[C@@]67CCCN6C[C@H](F)C7)nc5c3F)N3C[C@H]5CC[C@@H]([C@H]3CCC4)N5Cc3c(C)oc(=O)n3C)c12` [Example 5, 4-(((6aR,7S,10R)-2-(8-ethynyl-7-fluoronaphthalen-1-yl)-1-fluoro-13-(((2R,7aS)-2-fluorotetrahydro-1H-pyrrolizin-7a(5H)-yl)methoxy)-5,6,6a,7,8,9,10,11-octahydro-4H-3,11a,12,14,15-pentaaza-7,10-methanocyclohepta[4,5]cycloocta[1,2,3-de]naphthalen-15-yl)methyl)-3,5-dimethyloxazol-2(3H)-one], the IC50 in assay [1] (setting [3]) was 4.7 nM. The EC50 in assay [2] (setting [4]) was 78 nM.

Turning to `C#Cc1c(F)ccc2cccc(-c3nc4c5c(nc(OC[C@@]67CCCN6C[C@H](F)C7)nc5c3F)N3C[C@H]5CC[C@@H]([C@H]3CCC4)N5Cc3oc(=O)oc3C(C)(C)C)c12` [Example 6, 4-(tert-butyl)-5-(((6aR,7S,10R)-2-(8-ethynyl-7-fluoronaphthalen-1-yl)-1-fluoro-13-(((2R,7aS)-2-fluorotetrahydro-1H-pyrrolizin-7a(5H)-yl)methoxy)-5,6,6a,7,8,9,10,11-octahydro-4H-3,11a,12,14,15-pentaaza-7,10-methanocyclohepta[4,5]cycloocta[1,2,3-de]naphthalen-15-yl)methyl)-1,3-dioxol-2-one], the IC50 in assay [1] (setting [3]) was 31 nM. The EC50 in assay [2] (setting [4]) was 26 nM.

As to `C#Cc1c(F)ccc2cc(O)cc(-c3nc4c5c(nc(OC[C@@]67CCCN6C[C@H](F)C7)nc5c3F)N3C[C@H]5CC[C@@H]([C@@H]3[C@@H](C)C4)N5Cc3oc(=O)oc3C)c12` [Example 7, 4-(((5S,5aS,6S,9R)-2-(8-ethynyl-7-fluoro-3-hydroxynaphthalen-1-yl)-1-fluoro-12-(((2R,7aS)-2-fluorotetrahydro-1H-pyrrolizin-7a(5H)-yl)methoxy)-5-methyl-4,5,5a,6,7,8,9,10-octahydro-3,10a,11,13,14-pentaaza-6,9-methanonaphtho[1,8-ab]heptalen-14-yl)methyl)-5-methyl-1,3-dioxol-2-one], the IC50 in assay [1] (setting [3]) worked out at 2.8 nM. In assay [2] (setting [4]), the EC50 amounted to 0.18 nM.

For `Oc1cc(-c2nc3c4c(nc(OC[C@@]56CCCN5C[C@H](F)C6)nc4c2F)N2C[C@H]4CC[C@H](N4)[C@H]2CCC3)c2c(OC(F)(F)F)c(F)ccc2c1` [Example 18-P, 6-fluoro-4-((6aR,7S,10R)-1-fluoro-13-(((2R,7aS)-2-fluorotetrahydro-1H-pyrrolizin-7a(5H)-yl)methoxy)-5,6,6a,7,8,9,10,11-octahydro-4H-3,11a,12,14,15-pentaaza-7,10-methanocyclohepta[4,5]cycloocta[1,2,3-de]naphthalen-2-yl)-5-(trifluoromethoxy)naphthalen-2-ol], the IC50 in assay [1] (setting [3]) was 0.06 nM. The EC50 in assay [2] (setting [4]) stood at 0.24 nM.

For the compound `C#Cc1c(F)ccc2cc(O)cc(-c3c(F)c4c5c(nc(OC[C@@]67CCCN6C[C@H](F)C7)nc5c3F)N3C[C@H]5CC[C@H](N5)[C@H]3CC4)c12` [Example 37-P, 4-((1S,4R,11R,14aR)-10,12-difluoro-8-(((2R,7aS)-2-fluorotetrahydro-1H-pyrrolizin-7a(5H)-yl)methoxy)-1,2,3,4,5,13,14,14a-octahydro-1,4-epiminoazepino[1′,2′:1,7]azepino[2,3,4-de]quinazolin-11-yl)-5-ethynyl-6-fluoronaphthalen-2-ol], the 50% inhibitory concentration (IC50) in assay [1] (setting [3]) stood at 0.07 nM. For the same compound, the 50% effective concentration (EC50) in assay [2] (setting [4]) stood at 0.26 nM.

With `C#Cc1c(F)ccc2cc(O)cc(-c3nc4c5c(nc(OC[C@@]67CCCN6C[C@H](F)C7)nc5c3F)N3C[C@H]5CC[C@H](N5)[C@@H]3[C@H]3CCC[C@@H]43)c12` [Example 42-P, 5-ethynyl-6-fluoro-4-((3aS,3bS,4S,7R,14bR)-12-fluoro-10-(((2R,7aS)-2-fluorotetrahydro-1H-pyrrolizin-7a(5H)-yl)methoxy)-2,3,3a,3b,4,5,6,7,8,14b-decahydro-1H-8a,9,11,14,15-pentaaza-4,7-methanocyclopenta[d]naphtho[1,8-ab]heptalen-13-yl)naphthalen-2-ol], in assay [1] (setting [3]), the IC50 amounted to 0.15 nM. Further, the EC50 in assay [2] (setting [4]) came out at 1.7 nM.

In assay [1], `C#Cc1c(F)ccc2cc(OC(=O)N(C)C)cc(-c3nc4c5c(nc(OC[C@@]67CCCN6C[C@H](F)C7)nc5c3F)N3C[C@H]5CC[C@@H]([C@@H]3[C@@H](C)C4)N5Cc3oc(=O)oc3C)c12` [Example 51, 5-ethynyl-6-fluoro-4-((5S,5aS,6S,9R)-1-fluoro-12-(((2R,7aS)-2-fluorotetrahydro-1H-pyrrolizin-7a(5H)-yl)methoxy)-5-methyl-14-((5-methyl-2-oxo-1,3-dioxol-4-yl)methyl)-4,5,5a,6,7,8,9,10-octahydro-3,10a,11,13,14-pentaaza-6,9-methanonaphtho[1,8-ab]heptalen-2-yl)naphthalen-2-yl dimethylcarbamate] showed an IC50 of over 100 nM. Further, in assay [2] (GP2d, read-out: G12D 2D EC50 (nM)), the EC50 worked out at 34 nM.

Take `C#Cc1c(F)ccc2cc(O)cc(-c3nc4c5c(nc(OC[C@]6(C)CN(C)CC[C@@H]6C(F)F)nc5c3F)N3C[C@H]5CC[C@H](N5)[C@H]3CCC4)c12` [Example 74-P, 4-((6aR,7S,10R)-13-(((3S,4S)-4-(difluoromethyl)-1,3-dimethylpiperidin-3-yl)methoxy)-1-fluoro-5,6,6a,7,8,9,10,11-octahydro-4H-3,11a,12,14,15-pentaaza-7,10-methanocyclohepta[4,5]cycloocta[1,2,3-de]naphthalen-2-yl)-5-ethynyl-6-fluoronaphthalen-2-ol]: in assay [1] (setting [3]), the IC50 amounted to 0.03 nM. Also, the EC50 in assay [2] (setting [4]) stood at 0.15 nM.

Consider `[2H]C([2H])([2H])N1CC[C@H](C(F)F)[C@](C)(C([2H])([2H])Oc2nc3c4c(nc(-c5cc(O)cc6ccc(F)c(C#C)c56)c(F)c4n2)CCC[C@@H]2[C@@H]4CC[C@H](CN32)N4)C1` [Example 75-P, 4-((6aR,7S,10R)-13-(((3S,4S)-4-(difluoromethyl)-3-methyl-1-(methyl-d3)piperidin-3-yl)methoxy-d2)-1-fluoro-5,6,6a,7,8,9,10,11-octahydro-4H-3,11a,12,14,15-pentaaza-7,10-methanocyclohepta[4,5]cycloocta[1,2,3-de]naphthalen-2-yl)-5-ethynyl-6-fluoronaphthalen-2-ol], for which the IC50 in assay [1] (setting [3]) was found to be 0.03 nM. Also, in assay [2] (setting [4]), the EC50 is 0.1 nM.

`C#Cc1c(F)ccc2cc(N)cc(-c3nc4c5c(nc(OC[C@]6(C)CN(C)CC[C@@H]6C(F)F)nc5c3F)N3C[C@H]5CC[C@H](N5)[C@H]3CCC4)c12` [Example 76-P, 4-((6aR,7S,10R)-13-(((3S,4S)-4-(difluoromethyl)-1,3-dimethylpiperidin-3-yl)methoxy)-1-fluoro-5,6,6a,7,8,9,10,11-octahydro-4H-3,11a,12,14,15-pentaaza-7,10-methanocyclohepta[4,5]cycloocta[1,2,3-de]naphthalen-2-yl)-5-ethynyl-6-fluoronaphthalen-2-amine]: in assay [1] (setting [3]), the IC50 was 0.07 nM. In addition, the EC50 in assay [2] (setting [4]) stood at 0.27 nM.
